Source: patent US20240288345A1, “FLUORESCENT STAINING METHOD” (OSAKA UNIVERSITY, priority 2022, published 2024)

Legend:
[1] = tested on: goblet cell mucus of human colorectal mucosal tissue; assay: Fluorescent staining of frozen sliced specimen of human colonic mucosa (Test Example A)
Experimental: A tissue to be stained was washed with phosphate buffered saline (PBS), was immersed in 30% (w/v) of sucrose in the PBS, and was frozen in O.C.T. COMPOUND (45833, Sakura Finetek) at −80° ° C. overnight. The frozen tissue was cut into a thickness of 10 μm with a cryostat (CM3050 S, Leica Biosystems). The resultant frozen section was washed with PBS three times, and was subjected to pretreatment with a 0.5% solution of periodic acid (HIOA) (86171, MUTO PURE CHEMICALS CO., LTD.) at room temperature for 30 minutes. The section was washed with PBS three times, and was incubated in FAM hydrazide, 5-isomer((50 µM, 24170, BroadPharm, in this description, sometimes referred to as “FAM hydrazide”), Alexa Fluor 488 hydrazide (50 μM, A10436, ThermoFisher Scientific, Inc.), BDP FL hydrazide (50 μM, 11470, Lumiprobe Corporation), or fluorescein (50 µM, FUJIFILM Wako Pure Chemical Corporation) diluted with PBS at room temperature overnight. After that, the section was washed with PBS and an image thereof was obtained with a confocal microscope.
A section of a human colorectal mucosal tissue sampled from the non-tumor region of a surgical specimen of colorectal cancer was subjected to fluorescent staining through use of FAM hydrazide, Alexa Fluor 488 hydrazide, BDP FL hydrazide, or fluorescein serving as a fluorescent skeleton as a stain.

[2] = tested on: human colonic mucosal tissue; assay: Clearing and whole-mount 3D fluorescent staining of human colonic mucosal tissue (Test Example B)
Experimental: CUBIC-L and CUBIC-R+reagents (T3740 and T3741, Tokyo Chemical Industry Co., Ltd.) were used in tissue clearing. Atissue removal procedure is simply described below.
A formaldehyde-fixed tissue specimen was washed with PBS, and was subsequently immersed in a 50% (v/v) CUBIC-L reagent (mixture containing water and the CUBIC-L reagent at 1:1) overnight. Further, the specimen was immersed in the CUBIC-L reagent at 37° C. for 5 days or 6 days while being gently shaken. Next, each of those specimens was washed with PBS, was immersed in 30% (w/v) of sucrose in the PBS, and was frozen in O.C.T. COMPOUND at −80° C. overnight. […] After having been washed with PBS, the specimen was stained by being gently shaken at room temperature for 2 days or 3 days together with FAM hydrazide, 5-isomer (50 μM), Compound 1 (50 μM), Alexa Fluor 488 hydrazide (50 µM), BDP FL hydrazide ([…]), or fluorescein (50 µM) in PBS containing 0.5% (v/v) of Triton X-100 (12967, Nacalai Tesque, Inc.). When nuclear counterstaining was performed, propidium iodide (PI) (10 μg/mb, P21493, Life Technologies Corporation) or RedDot-2 (1:100, 40061-T, Biotium, Inc.) was also added to the staining solution. After the staining step, the specimen was washed with PBS, and was immersed in a 50% (v/v) CUBIC-R+reagent (mixture containing water and the CUBIC-R+reagent at 1:1) overnight. Further, the specimen was immersed in the CUBIC-R+reagent for 1 day or 2 days while being gently shaken. A cleared tissue specimen thus obtained was subjected to 3D imaging with a confocal fluorescence microscope or a light-sheet fluorescence microscope. A wavelength of 488 nm was applied as the excitation wavelength of each of FAM hydrazide, Compound 1, Alexa Fluor 488 hydrazide, BDP FL hydrazide, and fluorescein, and the fluorescence detection wavelength range of each of these materials was from 490 nm to 562 nm.
A 3D image was obtained by using a confocal microscope (Zeiss LSM880 Confocal/Multiphoton, Carl Zeiss AG) or a light-sheet fluorescence microscope (Zeiss Lightsheet 7, Carl Zeiss AG), All pieces of raw image data were reconstructed and analyzed with Imaris software (version 9.2.1, Bitplane Inc.).
A human colonic mucosal tissue after its formalin fixation, which had been excised into a square about 4 mm on a side, was subjected to clearing treatment and to whole-mount 3D tissue staining through use of FAM hydrazide, Alexa Fluor 488 hydrazide, BDP FL hydrazide, or fluorescein as a stain.

[3] = tested on: neutrophil in colonic tissue analyte; assay: Whole-mount 3D staining of ulcerative colitis colonic tissue analyte (Test Example C); design: species or system human; conditions: cleared
Experimental: (§1) A formaldehyde-fixed tissue specimen was washed with PBS, and was subsequently immersed in a 50% (v/v) CUBIC-L reagent (mixture containing water and the CUBIC-L reagent at 1:1) overnight. Further, the specimen was immersed in the CUBIC-L reagent at 37° C. for 5 days or 6 days while being gently shaken. Next, each of those specimens was washed with PBS, was immersed in 30% (w/v) of sucrose in the PBS, and was frozen in O.C.T. COMPOUND at −80° C. overnight. Next, the frozen specimen was thawed, was washed with PBS, and was immersed in a 0.5% solution of periodic acid (HIO;) (86171, MUTO PURE CHEMICALS CO., LTD.) at room temperature for 30 minutes. […] A cleared tissue specimen thus obtained was subjected to 3D imaging with a confocal fluorescence microscope or a light-sheet fluorescence microscope. A wavelength of 488 nm was applied as the excitation wavelength of each of FAM hydrazide, Compound 1, Alexa Fluor 488 hydrazide, BDP FL hydrazide, and fluorescein, and the fluorescence detection wavelength range of each of these materials was from 490 nm to 562 nm. […]

[4] = tested on: colonic tissue analyte, crypt structure and neutrophils; assay: 3D imaging of ulcerative colitis histopathological analyte (Test Example D); design: species or system human; conditions: cleared, whole-mount 3D staining
Experimental: as §1

human colonic polyp = assay: 3D imaging of human colonic polyp with light-sheet microscope (Test Example G); conditions: with propidium iodide counterstain
Experimental: as §1

[5] = tested on: fungal hyphae in a pulmonary aspergillosis tissue; assay: 3D imaging of fungal hyphae (Test Example H); conditions: with RedDot 2 counterstain, confocal microscope
Experimental: as §1

SMILES: NNC(=O)c1ccc2c(c1)C(=O)OC21c2ccc(O)cc2Oc2cc(O)ccc21 [FAM hydrazide, FAM hydrazide, 5-isomer]
- Fluorescent staining signal in goblet cell mucus, sliced section ([1]; 10 μm frozen section, 0.5% periodic acid pretreatment, 50 μM overnight): clear positive image
- Fluorescent staining signal without oxidation treatment with HIO4, sliced section ([1]; no HIO4 oxidation): not obtained
- 3D imaging signal of cleared tissue ([2]; CUBIC clearing, periodic acid, 50 μM, 2-3 days, excitation 488 nm): clear stereoscopic image
- Staining of goblet cell and basement membrane in crypt of colonic mucosa ([2]; cleared tissue, 3D staining): clearly stained
- Staining of neutrophil in 3D tissue staining ([2]; cleared tissue, confirmed with anti-MPO antibody): clearly stained
- 3D staining signal without oxidation treatment with HIO4 ([2]; no HIO4 oxidation, CUBIC reagent): no positive signal was observed
- Staining property for a sample having a thickness after clearing treatment ([2]; summary of Examples and Test Examples): significantly excellent
- Stained image of neutrophil in 3D imaging [3]: clear stained image
- Three-dimensional observation of pathological crypt structure of ulcerative colitis [4]: enabled the three-dimensional observation
- Observation of surface layer structure of human colonic polyp (human colonic polyp): able to be observed
- Visualization of structures of fungal hyphae [5]: clearly visualized
